Data as given in PMC6270921, “Study on the Cytotoxic Activity of Drimane Sesquiterpenes and Nordrimane Compounds against Cancer Cell Lines” (Molecules, 2014).

Experiments:
[1] = Cell viability, sulforhodamine B assay; assay type: cell-based; conditions: human, CCD 841 CoN colon epithelial cells (non-tumoral cell line), 72 h exposure, dilutions 12.5 to 100 μM, non-tumor cell line, read-out: Cytotoxicity IC50, CoN
Protocol: (§1) The cytotoxicity of compounds 1–12 was evaluated in vitro against different cancer cell lines: MCF-7 breast cancer, DU-145 and PC-3 human prostate cancer, and one non-tumor cell line, human colon epithelial cells CCD 841 CoN (CoN). […] Four serial dilutions (from 12.5 to 100 μM) for each sample were evaluated in triplicate.
(§2) The experimental cell cultures were obtained from the American Type Culture Collection (Rockville, MD, USA). MCF-7 cells (breast cancer cell line), PC-3 and DU-145 (prostate cancer cell lines), and human colon epithelial cells CCD 841 CoN (non-tumoral cell line) were grown in Dulbecco’s modified Eagle’s medium (DMEM) containing 10% FCS, 100 U/mL penicillin, 100 μg/mL streptomycin, and 1 mM glutamine. Cells were seeded into 96 well microtiter plates in 100 μL at a plating density of 5 × 10^3 cells/well. After 24 h incubation at 37 °C under a humidified 5% CO2 atmosphere to allow cell attachment, the cells were treated with different concentrations of drugs and incubated for 72 h under the same conditions. Stock solutions of compounds were prepared in ethanol and the final concentration of this solvent was kept constant at 1%. Control cultures received 1% ethanol alone.
(§3) The sulforhodamine B assay was used according to the method of Skehan et al.. Briefly, the cells were set up at 3 × 10^3 cells per well of a 96 200 μL well, flat-bottomed, microplate. Cells were incubated at 37 °C in a humidified 5% CO2/95% air mixture and treated with the compounds at different concentrations for 72 h. At the end of drug exposure, cells were fixed with 50% trichloroacetic acid at 4 °C. After washing with water, cells were stained with 0.1% sulforhodamine B (Sigma-Aldrich, St. Louis, MO, USA), dissolved in 1% acetic acid (50 μL/well) for 30 min, and subsequently washed with 1% acetic acid to remove unbound stain. Protein-bound stain was solubilized with 100 μL of 10 mM unbuffered Tris base, and the cell density was determined using a […] plate reader (wavelength 540 nm). Values shown are the mean ± SD of three independent experiments in triplicate. The software used to calculate the IC50 values was GraphPad (GraphPad Software, San Diego, CA, USA).

[2] = test system: PC-3 prostate cancer cell line; assay: Cell viability, sulforhodamine B assay; assay type: cell-based; conditions: Homo sapiens, 72 h exposure, dilutions 12.5 to 100 μM, read-out: Cytotoxicity IC50, PC-3
Protocol: as §1, §2, §3

[3] = test system: MCF-7 breast cancer cell line; assay: Cell viability, sulforhodamine B assay; assay type: cell-based; conditions: Homo sapiens, MCF7, 72 h exposure, dilutions 12.5 to 100 μM, read-out: Cytotoxicity IC50, MCF-7
Protocol: as §1, §2, §3

[4] = test system: DU-145 prostate cancer cell line; assay: Cell viability, sulforhodamine B assay; assay type: cell-based; conditions: Homo sapiens, 72 h exposure, dilutions 12.5 to 100 μM, read-out: Cytotoxicity IC50, DU145
Protocol: as §1, §2, §3

PC-3 cells = assay: Mitochondrial membrane permeability, rhodamine 123 flow cytometry; assay type: cell-based, human; conditions: PC-3, positive control FCCP 10 μM
Source text: (§4) Mitochondria play a crucial role in the apoptotic cascade by serving as a convergent center of apoptotic signals originating from both the extrinsic and intrinsic pathways. Changes induced in the mitochondrial membrane potential (MMP) have been reported previously to represent a determinant in the execution of cell death. As polygodial has been described as an inhibitor of mitochondrial ATPase and also as nonionic surfactant. This effect may be determinant in cell death, we has analyzed the effect of compounds 1, 8 and 12 on the mitochondrial membrane potential using flow cytometry with rhodamine 123 stain [24]. […] Similar differences were observed after treatments with compounds 1 and 8 at 100 μM.
(§5) Rhodamine 123, a cationic, voltage-sensitive probe that reversibly accumulates in mitochondria, was used to detect changes in transmembrane mitochondrial membrane potentials. Cells were labelled with 1 μM rhodamine 123 at 37 °C in cell medium for 60 min before terminating the experiment. Cells were detached from the plate, after washing with ice cold PBS, and the samples were analyzed by flow cytometry. Data are expressed in percentage of cells with rhodamine 123 [24].

CoN cells = assay: as above; assay type: cell-based, human; conditions: positive control FCCP 10 μM
Source text: as §4, §5

MCF-7 cells = assay: as above; assay type: cell-based, human; conditions: MCF-7, positive control FCCP 10 μM
Source text: as §4, §5

[5] = test system: Salmonella strains TA 98, TA 2637, and TA 100; conditions: at highest non-toxic concentration; cited from earlier work

Compound	IC50 at 72 h [1] [µM]	IC50 [2] [µM]	IC50 [3] [µM]	IC50 [4] [µM]	percentage of rhodamine 123 stained cells (PC-3 cells) [%]	percentage of rhodamine 123 stained cells (CoN cells) [%]	percentage of rhodamine 123 stained cells (MCF-7 cells) [%]	mutagenic activity [5]
CC1=CC[C@H]2C(C)(C)CCC[C@]2(C)[C@H]1CO [Compound 3, drimenol]	> 200	> 200	> 200	> 200	–	–	–	–
CC1(C)CCC[C@]2(C)[C@H](CO)C(CO)=CC[C@@H]12 [Compound 6, 9α-drimendiol]	> 200	> 200	> 200	> 200	–	–	–	–
N#CC(C#N)=NNc1ccc(OC(F)(F)F)cc1 [FCCP, reference compound]	–	–	–	–	5.2 ± 0.4	6.8 ± 1.3	7.4 ± 0.4	–
CC(=O)O[C@H]1C[C@H]2C(C)(C)CCC[C@]2(C)C=C1C [Compound 10]	> 200	> 200	> 200	> 200	–	–	–	–
CC1(C)CCC[C@]2(C)[C@H](C=O)C(C=O)=CC[C@@H]12 [Compound 2, isopolygodial]	> 200	> 200	> 200	> 200	–	–	–	no mutagenic activity
CC(=O)O[C@H]1C[C@H]2C(C)(C)CCC[C@]2(C)[C@@H]2O[C@]12C [Compound 11, (5S,7S,8R,9S,10S)-4,4,8β,10β-tetramethyldecahydronaphtho[8,9-α]oxiren-7-yl acetate]	> 200	> 200	> 200	> 200	–	–	–	–
